The supplement of paper PMC13380429

Tests used:
Settings in all cases: 72 h
[1] = test system: U2OS; assay: drug sensitivity score (DSS) for viability; higher = more toxic; extreme values may be limits of the assay
[2] = test system: Caco-2; assay: as above
[3] = test system: HepG2; assay: as above
[4] = test system: Calu-3; assay: as above
[5] = test system: Vero E6; assay: as above
[6] = test system: U2OS; assay: cell viability relative to DMSO; higher = less toxic
[7] = test system: Caco-2; assay: as above
[8] = test system: HepG2; assay: as above
[9] = test system: Calu-3; assay: as above
[10] = test system: Vero E6; assay: as above
[11] = test system: U2OS; assay: relative viability EC50 (midpoint between 100% and the lowest measured viability); higher = less toxic
[12] = test system: Caco-2; assay: as above
[13] = test system: HepG2; assay: as above
[14] = test system: Vero E6; assay: as above
[15] = test system: Calu-3; assay: as above

| Compound | drug sensitivity score [1] | drug sensitivity score [2] | drug sensitivity score [3] | drug sensitivity score [4] | drug sensitivity score [5] | cell viability ([6]; 1 nM) [%] | cell viability ([6]; 10 nM) [%] | cell viability ([6]; 100 nM) [%] | cell viability ([6]; 1000 nM) [%] | cell viability ([6]; 10000 nM) [%] | cell viability ([7]; 1 nM) [%] | cell viability ([7]; 10 nM) [%] | cell viability ([7]; 100 nM) [%] | cell viability ([7]; 1000 nM) [%] | cell viability ([7]; 10000 nM) [%] | cell viability ([8]; 1 nM) [%] | cell viability ([8]; 10 nM) [%] | cell viability ([8]; 100 nM) [%] | cell viability ([8]; 1000 nM) [%] | cell viability ([8]; 10000 nM) [%] | cell viability ([9]; 1 nM) [%] | cell viability ([9]; 10 nM) [%] | cell viability ([9]; 100 nM) [%] | cell viability ([9]; 1000 nM) [%] | cell viability ([9]; 10000 nM) [%] | cell viability ([10]; 1 nM) [%] | cell viability ([10]; 10 nM) [%] | cell viability ([10]; 100 nM) [%] | cell viability ([10]; 1000 nM) [%] | cell viability ([10]; 10000 nM) [%] | relative viability EC50 [11] [µM] | relative viability EC50 [12] [µM] | relative viability EC50 [13] [µM] | relative viability EC50 [14] [µM] | relative viability EC50 [15] [µM] |
| --- | --- | --- | --- | --- | --- | --- | --- | --- | --- | --- | --- | --- | --- | --- | --- | --- | --- | --- | --- | --- | --- | --- | --- | --- | --- | --- | --- | --- | --- | --- | --- | --- | --- | --- | --- |
| CCCCc1ccc2[nH]c(NC(=O)OC)nc2c1 [parbendazole] | 8.8 | 8.3 | 9.6 | 5.9 | 12 | 96.4 | 98 | 93.2 | 59.2 | 32.7 | 104 | 94.7 | 91.7 | 59.9 | 48.9 | 82.9 | 98.3 | 98.2 | 51.7 | 31.5 | 103 | 96.1 | 96.9 | 69.8 | 57.2 | 96 | 98.2 | 94.5 | 39 | 28.8 | 0.676 | 0.353 | 0.641 | 0.38 | – |
| CSc1nc(-c2ccc(F)cc2)c(-c2ccnc(N[C@@H](C)c3ccccc3)c2)[nH]1 [ML3403] | 0 | 1.9 | 0.1 | 0 | 0 | 99.9 | 99.1 | 100 | 94.8 | 90.9 | 94.6 | 93.4 | 97.3 | 94.2 | 74.2 | 100 | 101 | 97.6 | 105 | 86.5 | 101 | 99.1 | 103 | 94.5 | 89.8 | 102 | 105 | 101 | 99.8 | 88.7 | > 10 | – | > 10 | > 10 | > 10 |
| COC(=O)c1cc2c(C(F)(F)F)cc(-c3ccccc3)cc2n1O [NHI-2] | 0 | 0 | 0 | – | 0 | 103 | 98.1 | 102 | 97.1 | 101 | 106 | 90.2 | 102 | 90.1 | 91.2 | 95.1 | 103 | 110 | 98.2 | 99.3 | – | – | – | – | – | 104 | 104 | 98.8 | 101 | 97.5 | > 10 | > 10 | > 10 | > 10 | – |
| C=C1CC[C@H](O)C/C1=C/C=C1\CCC[C@]2(C)[C@@H]([C@H](C)/C=C/[C@H](C)C(C)C)CC[C@@H]12 [ergocalciferol] | 0 | – | 0 | 0 | 0 | 99.3 | 99.6 | 96.2 | 100 | 94.3 | – | – | – | – | – | 114 | 99.3 | 112 | 97.5 | 93 | 86.5 | 89.2 | 80.2 | 108 | 104 | 102 | 105 | 96.2 | 93.6 | 101 | > 10 | – | > 10 | > 10 | > 10 |
| COc1cc(N2CCC(N3CCN(C)CC3)CC2)ccc1Nc1ncc(Cl)c(Nc2ccccc2S(=O)(=O)C(C)C)n1 [NVP-TAE684] | 5.7 | 4.3 | 8.1 | 3.4 | 4.9 | 106 | 97.9 | 102 | 91.2 | 22.9 | 103 | 104 | 101 | 87.4 | 53.5 | 91.7 | 96.1 | 103 | 63.9 | 34.2 | 97.2 | 94.5 | 90.2 | 86.6 | 61.5 | 100 | 97.2 | 93.5 | 89.5 | 42.6 | 2.22 | – | 0.926 | 1.81 | – |
| CCC(=O)OCC(=O)[C@@]1(OC(=O)CC)[C@@H](C)C[C@H]2[C@@H]3CCC4=CC(=O)C=C[C@]4(C)[C@@]3(F)[C@@H](O)C[C@@]21C [BETAMETHASONE 17,21-DIPROPIONATE] | 0 | 0 | 0 | – | 0 | 91.6 | 96.8 | 93.7 | 97 | 102 | 99 | 97.8 | 99.9 | 111 | 98.2 | 103 | 88.3 | 101 | 95.5 | 110 | – | – | – | – | – | 103 | 95.2 | 91.2 | 92.9 | 99.1 | > 10 | > 10 | > 10 | > 10 | – |
| CN1C(=O)CC(C)(c2ccccc2)C1=O (stereo not drawn) [methsuximide] | 0 | 0 | 0 | – | 0 | 97.1 | 101 | 94 | 96.6 | 91.2 | 97.5 | 102 | 99.1 | 105 | 96.7 | 98.2 | 94.4 | 101 | 100 | 104 | – | – | – | – | – | 96.1 | 97.1 | 98.7 | 96.1 | 95.2 | > 10 | > 10 | > 10 | > 10 | – |
